Test results published in patent publication US20230146455A1, “TREATMENT OF INFLAMMATORY DISEASES WITH PEPTIDES AND PHARMACEUTICAL COMPOSITIONS” (Yuyu Pharma, Inc., priority 2020, published 2023).
Values joined by “and” are separate entries in the source; they are usually repeats but may differ in a detail not shown here. Equal entries are not always repeated. Where a SMILES comes first, the peptide text is derived from it. [ ]: non-standard residue; d: D form. Hyp = O=C(O)[C@@H]1C[C@@H](O)CN1

What was measured:
TIMP-1 = assay: Example 9 Luminex, LPS hPBMCs: TIMP-1; type: cell-based, human; conditions: PBMC without LPS
Procedure: (§1) Treatment Human PBMCs were pretreated with YY-101, YDE-011 and YDE-043 or reference compound; Xiidra® at various concentration (ranging from 1 nM to 100 uM) for 2 h before stimulation. An equal volume of 0.5% DMSO was used as a vehicle control. Then, the cells were treated with LPS at 5 ug/ml. The supernatants from treated cells were harvested at 24 h and placed in a 96 well for Luminex cytokine & chemokine profiling using a Luminex 200 multiplex assay (Luminex; R&D system, USA).
(§2) The main study arm with triplicate wells per group in a 24-well plate: • 1. Blank • 2. PBMC: 0.5% DMSO • 3. PBMC+LPS (5 ug/ml) • 4. PBMC+YY-101 100 uM • 5. PBMC+YY-101 10 uM • 6. PBMC+YY-101 1 uM • 7. PBMC+YY-101 0.1 uM • 8. PBMC+YY-101 0.01 uM • 9. PBMC+LPS (5 ug/ml)+Xiidra®100 uM • 10. PBMC+LPS (5 ug/ml)+Xiidra® 10 uM • 11. PBMC+LPS (5 ug/ml)+Xiidra® 1 uM • 12. PBMC+LPS (5 ug/ml)+Xiidra®0.1 uM • 13. PBMC+LPS (5 ug/ml)+Xiidra®0.01 uM • 14. PBMC+LPS (5 ug/ml)+Xiidra®0.001 uM • 15. PBMC+LPS (5 ug/ml)+YY-101 100 uM • 16. PBMC+LPS (5 ug/ml)+YY-101 10 uM • 17. PBMC+LPS (5 ug/ml)+YY-101 1 uM • 18. PBMC+LPS (5 ug/ml)+YY-101 0.1 uM • 19. PBMC+LPS (5 ug/ml)+YY-101 0.01 uM • 20. PBMC+LPS (5 ug/ml)+YY-101 0.001 uM • 21. PBMC+LPS (5 ug/ml)+YDE-011 100 uM • 22. PBMC+LPS (5 ug/ml)+YDE-011 10 uM • 23. PBMC+LPS (5 ug/ml)+YDE-011 1 uM • 24. PBMC+LPS (5 ug/ml)+YDE-011 0.1 uM • 25. PBMC+LPS (5 ug/ml)+YDE-011 0.01 uM • 26. PBMC+LPS (5 ug/ml)+YDE-011 0.001 uM • 27. PBMC+LPS (5 ug/ml)+YDE-043 100 uM • 28. PBMC+LPS (5 ug/ml)+YDE-043 10 uM • 29. PBMC+LPS (5 ug/ml)+YDE-043 1 uM • 30. PBMC+LPS (5 ug/ml)+YDE-043 0.1 uM • 31. PBMC+LPS (5 ug/ml)+YDE-043 0.01 uM • 32. PBMC+LPS (5 ug/ml)+YDE-043 0.001 uM
(§3) Multiplex assay was used to measure 30 cytokines and chemokines. The 1:2, 1:10 and 1:200 diluted cell supernatant and serial dilution of the standard were dispensed into a 96 well plate at 50 ul/well. Then, the pre-mixed cocktail of antibody-coated magnetic beads was dispensed at 50 ul/well and incubated at room temperature for 2 h in a horizontal orbital microplate shaker at 800±500 rpm. The beads were washed using a magnetic device to prevent loss. The biotin-antibody was dispensed in 50 ul of each well and incubated at room temperature for 1 h in a shaker at 800±500 rpm. After washing, streptavidin-PE was added at 50 ul/well and incubated at room temperature for 30 min in a shaker under the same conditions. Finally, after washing, wash buffer (100 ul/well) was added to the plate and incubated in a shaker for 2 min. The Luminex™ 200 setting were set according to the manufacturer's protocol. The data was calculated with a standard five-parameter logistic nonlinear regression analysis of the data (xPonent software 4.2, USA). The levels of cytokine/chemokine are normalized to the live cell counts (1×10^5 cells/mL) and presented as concentrations per mL (pg/mL or ng/mL).

CCL2/JE/MCP-1 = assay: Example 9 Luminex, LPS hPBMCs: CCL2/JE/MCP-1; type: cell-based, human
Procedure: as §1, §2, §3

[1] = test article 10 uM, single replicates
[2] = test article 100 uM, single replicates
[3] = PBMC + LPS(5 ug/ml) + test article 0.001 uM, Mean
[4] = PBMC + LPS(5 ug/ml) + test article 0.001 uM, individual replicates
[5] = PBMC + LPS(5 ug/ml) + test article 0.01 uM, Mean
[6] = PBMC + LPS(5 ug/ml) + test article 0.01 uM, individual replicates
[7] = PBMC + LPS(5 ug/ml) + test article 0.1 uM, Mean
[8] = PBMC + LPS(5 ug/ml) + test article 0.1 uM, individual replicates
[9] = PBMC + LPS(5 ug/ml) + test article 1 uM, Mean
[10] = PBMC + LPS(5 ug/ml) + test article 1 uM, individual replicates
[11] = PBMC + LPS(5 ug/ml) + test article 10 uM, Mean
[12] = PBMC + LPS(5 ug/ml) + test article 10 uM, individual replicates
[13] = PBMC + LPS(5 ug/ml) + test article 100 uM, Mean
[14] = PBMC + LPS(5 ug/ml) + test article 100 uM, individual replicates
[15] = PBMC + test article 0.01 uM, no LPS, Mean
[16] = PBMC + test article 0.01 uM, no LPS, individual replicates
[17] = PBMC + test article 0.1 uM, no LPS, Mean
[18] = PBMC + test article 0.1 uM, no LPS, individual replicates
[19] = PBMC + test article 1 uM, no LPS, Mean
[20] = PBMC + test article 1 uM, no LPS, individual replicates
[21] = PBMC + test article 10 uM, no LPS, Mean
[22] = PBMC + test article 10 uM, no LPS, individual replicates
[23] = PBMC + test article 100 uM, no LPS, Mean
[24] = PBMC + test article 100 uM, no LPS, individual replicates

Structure (SMILES): CC(C)C[C@H](NC(=O)CNC(=O)[C@H](CC(=O)O)NC(=O)[C@H](CCC(N)=O)NC(=O)CNC(=O)[C@@H]1C[C@@H](O)CN1)C(=O)N[C@@H](C)C(=O)NCC(=O)N1CCC[C@H]1C(=O)N[C@@H](CCCCN)C(=O)O [YY-101] (H-[Hyp]GQDGLAGPK-OH; N-terminus and C-terminus assumed)
- TIMP-1 MFI (TIMP-1; test article 10 uM, Mean): 4666.8
- TIMP-1 conc/live cell (TIMP-1; test article 10 uM, Mean): 1047.2 pg/10^5
- TIMP-1 Concentration (TIMP-1; [1]): 8049.3 pg/mL and 5104.1 pg/mL
- TIMP-1 MFI (TIMP-1; [1]): 5828.5 and 3505.0
- TIMP-1 conc/live cell (TIMP-1; [1]): 1257.7 pg/10^5 and 836.7 pg/10^5
- TIMP-1 Concentration (TIMP-1; test article 100 uM, Mean): 6554.3 pg/mL
- TIMP-1 MFI (TIMP-1; test article 100 uM, Mean): 4654.3
- TIMP-1 conc/live cell (TIMP-1; test article 100 uM, Mean): 982.4 pg/10^5
- TIMP-1 Concentration (TIMP-1; [2]): 6886.9 pg/mL and 6221.7 pg/mL
- TIMP-1 MFI (TIMP-1; [2]): 4917.0 and 4391.5
- TIMP-1 conc/live cell (TIMP-1; [2]): 1076.1 pg/10^5 and 888.8 pg/10^5
- Concentration (CCL2/JE/MCP-1; [3]): 3936.7 pg/mL
- conc/live cell (CCL2/JE/MCP-1; [3]): 612.8 pg/10^5
- Concentration (CCL2/JE/MCP-1; [4]): 3765.3 pg/mL and 3838.5 pg/mL and 4206.2 pg/mL
- conc/live cell (CCL2/JE/MCP-1; [4]): 660.6 pg/10^5 and 540.6 pg/10^5 and 637.3 pg/10^5
- Concentration (CCL2/JE/MCP-1; [5]): 4029.1 pg/mL
- conc/live cell (CCL2/JE/MCP-1; [5]): 653.6 pg/10^5
- Concentration (CCL2/JE/MCP-1; [6]): 4143.7 pg/mL and 4045.9 pg/mL and 3897.7 pg/mL
- conc/live cell (CCL2/JE/MCP-1; [6]): 647.5 pg/10^5 and 674.3 pg/10^5 and 639.0 pg/10^5
- Concentration (CCL2/JE/MCP-1; [7]): 3583.8 pg/mL
- conc/live cell (CCL2/JE/MCP-1; [7]): 616.4 pg/10^5
- Concentration (CCL2/JE/MCP-1; [8]): 3601.3 pg/mL and 3708.0 pg/mL and 3442.0 pg/mL
- conc/live cell (CCL2/JE/MCP-1; [8]): 580.9 pg/10^5 and 713.1 pg/10^5 and 555.2 pg/10^5
- Concentration (CCL2/JE/MCP-1; [9]): 4023.9 pg/mL
- conc/live cell (CCL2/JE/MCP-1; [9]): 619.0 pg/10^5
- Concentration (CCL2/JE/MCP-1; [10]): 3902.2 pg/mL and 3911.6 pg/mL and 4257.8 pg/mL
- conc/live cell (CCL2/JE/MCP-1; [10]): 619.4 pg/10^5 and 550.9 pg/10^5 and 686.7 pg/10^5
- Concentration (CCL2/JE/MCP-1; [11]): 3459.8 pg/mL
- conc/live cell (CCL2/JE/MCP-1; [11]): 524.3 pg/10^5
- Concentration (CCL2/JE/MCP-1; [12]): 3308.6 pg/mL and 3697.4 pg/mL and 3373.4 pg/mL
- conc/live cell (CCL2/JE/MCP-1; [12]): 551.4 pg/10^5 and 577.7 pg/10^5 and 443.9 pg/10^5
- Concentration (CCL2/JE/MCP-1; [13]): 598.6 pg/mL
- conc/live cell (CCL2/JE/MCP-1; [13]): 104.2 pg/10^5
- Concentration (CCL2/JE/MCP-1; [14]): 541.0 pg/mL and 629.1 pg/mL and 625.5 pg/mL
- conc/live cell (CCL2/JE/MCP-1; [14]): 85.9 pg/10^5 and 101.5 pg/10^5 and 125.1 pg/10^5
- Concentration (CCL2/JE/MCP-1; [15]): 3382.2 pg/mL
- conc/live cell (CCL2/JE/MCP-1; [15]): 692.4 pg/10^5
- Concentration (CCL2/JE/MCP-1; [16]): 1522.2 pg/mL and 5242.2 pg/mL
- conc/live cell (CCL2/JE/MCP-1; [16]): 292.7 pg/10^5 and 1092.1 pg/10^5
- Concentration (CCL2/JE/MCP-1; [17]): 2047.1 pg/mL
- conc/live cell (CCL2/JE/MCP-1; [17]): 389.7 pg/10^5
- Concentration (CCL2/JE/MCP-1; [18]): 1338.6 pg/mL and 2755.6 pg/mL
- conc/live cell (CCL2/JE/MCP-1; [18]): 304.2 pg/10^5 and 475.1 pg/10^5
- Concentration (CCL2/JE/MCP-1; [19]): 1790.1 pg/mL
- conc/live cell (CCL2/JE/MCP-1; [19]): 325.5 pg/10^5
- Concentration (CCL2/JE/MCP-1; [20]): 1471.3 pg/mL and 2108.8 pg/mL
- conc/live cell (CCL2/JE/MCP-1; [20]): 267.5 pg/10^5 and 383.4 pg/10^5
- Concentration (CCL2/JE/MCP-1; [21]): 7729.5 pg/mL
- conc/live cell (CCL2/JE/MCP-1; [21]): 1218.8 pg/10^5
- Concentration (CCL2/JE/MCP-1; [22]): 12584.2 pg/mL and 2874.9 pg/mL
- conc/live cell (CCL2/JE/MCP-1; [22]): 1966.3 pg/10^5 and 471.3 pg/10^5
- Concentration (CCL2/JE/MCP-1; [23]): 1095.4 pg/mL
- conc/live cell (CCL2/JE/MCP-1; [23]): 165.8 pg/10^5
- Concentration (CCL2/JE/MCP-1; [24]): 1394.1 pg/mL and 796.7 pg/mL
- conc/live cell (CCL2/JE/MCP-1; [24]): 217.8 pg/10^5 and 113.8 pg/10^5
